Data: PMC3350394, “Kinetic analysis and test-retest variability of the radioligand [^11C](R)-PK11195 binding to TSPO in the human brain - a PET study in control subjects” (EJNMMI Research, 2012)
Values joined by “and” are separate entries in the source; they are usually repeats but may differ in a detail not shown here. Equal values may be shown once.

Target: TSPO (Homo sapiens, UniProt P30536)
Test: PET, kinetic compartment analysis (1TCM, 2TCM) with metabolite-corrected arterial input function
Conditions: for BPND (k3/k4) Mean: mean of test and retest; for BPND (k3/k4) Retest / BPND (k3/k4) Test / VT (2TCM): mean(SD); for BPND (k3/k4) Retest / BPND (k3/k4) Test: 6 subjects; for ICC: BPND test-retest
Description: Each subject was placed recumbent with the head in the PET system. A head fixation system with an individual plaster helmet was used. A cannula was inserted into the left radial artery and another into the right antecubital vein. A sterile phosphate buffer (pH = 7.4) containing radioligand was injected as a bolus over 2 s into the cubital vein. The cannula was then immediately flushed with a 10-mL saline solution. In each individual, the measurement was repeated after approximately 6 weeks.
The PET system used was ECAT Exact HR 47 (Siemens/CTI, Knoxville, TN, USA), with an in-plane and an axial resolution of 3.6 and 4.0 mm, respectively, full width at half maximum (FWHM). The radioactivity in the brain was measured continuously for 60 min using a pre-programmed sequence of […] (20 s × 9, 30 s × 6, 180 s × 5, 300 s × 5). […] The images were reconstructed with a Hanning filter (FWHM = 2 mm) in a matrix of 128 × 128 × 47 voxels, yielding a voxel size of 2.03 × 2.03 × 3.125 mm. Attenuation correction was done using transmission scan data obtained for each subject.
[^11C](R)-PK11195 binding to TSPO was quantified using kinetic compartment analyses with the metabolite-corrected arterial plasma curve as input function. Two compartment models (one- and two-tissue) were used to fit the model to the TACs. The fractional volume of blood present in the tissue volume and bolus time were estimated for each individual, each occasion, by fitting the whole brain TAC with a two-tissue compartment model.
The one-tissue compartment model (1TCM) describes one compartment which is a composite of free, non-specifically and specifically bound radioligands. The two rate constants, K1 and k2, describe the influx and efflux rates across the blood-brain barrier, respectively.
The two-tissue compartment model (2TCM) has been described in detail in the literature. The two-tissue compartments are defined as the radioactivity concentration of a nondisplaceable radioligand in the brain (CND) and the radioactivity concentration of a radioligand specifically bound to receptors (CB). In this model, four rate constants (K1, k2, k3 and k4) explain the time curves for radioligand in the brain. In short, the four rate constants were determined by curve fitting with a weighted non-linear least squares fitting technique with constraint-restricting parameters between 0 and 0.9. Each initial value for K1, k2, k3 and k4 was 0.5, 0.1, 0.5 and 0.5, respectively. The local minimum of the sum of the squared residuals was determined by iteration.
Regional [^11C](R)-PK11195 binding was expressed using the concept of the total distribution volume (VT), which is defined by the following equation, using kinetic constants obtained from 2TCM [16, 20, 21].
Specific [^11C](R)-PK11195 binding was expressed as binding potential relative to nondisplaceable binding (BPND) as follows:
The fractional volume of blood present in the tissue volume was determined for each individual, each occasion. It was obtained by fitting whole brain TAC with a 2TCM with six parameters (K1, k2, k3, k4, fractional blood volume (VB) and time shift between plasma input function and PET TAC (tbolus)) and parameters VB and tbolus subsequently applied for each brain region.
The reproducibility of two successive PET measurements was analysed by means of descriptive statistics (mean, range, SD, coefficient of variance (CV), difference in measurement (error in percent) and intra-class correlation coefficient (ICC)). The ICC was calculated from the between-subject and within-subject variations, using the expression: […]

[1] = brainstem, BPND test-retest difference in measurements
[2] = brainstem, VT (2TCM) test-retest
[3] = caudate (L), BPND test-retest difference in measurements
[4] = caudate (R), BPND test-retest difference in measurements
[5] = cerebellum, BPND test-retest difference in measurements
[6] = cerebellum, VT (2TCM) test-retest
[7] = grey matter, cortex, BPND test-retest difference in measurements
[8] = grey matter, 1TCM, retest (2), individual subjects 1-6
[9] = grey matter, 1TCM, test (1), individual subjects 1-6
[10] = grey matter, 1TCM, test (1), mean(SD/CV) of 6 subjects
[11] = grey matter, 2TCM, retest (2), individual subjects 1-6
[12] = grey matter, 2TCM, retest (2), mean(SD/CV) of 6 subjects
[13] = grey matter, 2TCM, test (1), individual subjects 1-6
[14] = grey matter, 2TCM, test (1), mean(SD/CV) of 6 subjects
[15] = grey matter, VT (2TCM) test-retest
[16] = putamen (L), BPND test-retest difference in measurements

Sequence of TSPO (P30536 whole entry): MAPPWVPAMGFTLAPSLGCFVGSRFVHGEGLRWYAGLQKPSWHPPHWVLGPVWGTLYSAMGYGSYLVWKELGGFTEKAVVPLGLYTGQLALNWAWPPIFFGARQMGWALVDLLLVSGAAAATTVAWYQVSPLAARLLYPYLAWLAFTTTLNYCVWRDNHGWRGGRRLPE

Compound: CC[C@@H](C)N([11CH3])C(=O)c1cc2ccccc2c(-c2ccccc2Cl)n1 [[^11C](R)-PK11195]
- influx rate constant K1 (2TCM, range): 0.05 to 0.09
- BPND throughout the human brain, range (2TCM, regional means): 1.11 to 2.21
- BPND (k3/k4) Mean (brainstem, 2TCM): 2.09
- BPND (k3/k4) Retest (brainstem, 2TCM): 2.18(0.33)
- BPND (k3/k4) Test (brainstem, 2TCM): 2.00(0.35)
- ICC (brainstem): -0.6
- Error % mean(SD) [1]: -13(31) %
- Error range (%) [1]: -45 to 26%
- Error % mean(SD) [2]: -13(10) %
- Error range (%) [2]: -29 to -1%
- VT (2TCM) (brainstem, retest): 0.74 (0.16)
- VT (2TCM) (brainstem, test): 0.86(0.18)
- BPND (k3/k4) Mean (caudate (L), 2TCM): 1.68
- BPND (k3/k4) Retest (caudate (L), 2TCM): 1.84(0.93)
- BPND (k3/k4) Test (caudate (L), 2TCM): 1.52(0.43)
- ICC (caudate (L)): -0.05
- Error % mean(SD) [3]: -27(66) %
- Error range (%) [3]: -133 to 42%
- BPND (k3/k4) Mean (caudate (R), 2TCM): 1.77
- BPND (k3/k4) Retest (caudate (R), 2TCM): 2.21(1.19)
- BPND (k3/k4) Test (caudate (R), 2TCM): 1.33(0.68)
- ICC (caudate (R)): 0.01
- Error % mean(SD) [4]: -96(126) %
- Error range (%) [4]: -288 to12%
- BPND (k3/k4) Mean (caudate, 2TCM): 1.65
- BPND (k3/k4) Retest (caudate, 2TCM): 1.92(0.87)
- BPND (k3/k4) Test (caudate, 2TCM): 1.37(0.55)
- ICC (caudate): 0.01
- Error range (%) (caudate, BPND test-retest difference in measurements): -155 to 30%
- Error % mean(SD) (caudate, VT (2TCM) test-retest): 25(36) %
- Error range (%) (caudate, VT (2TCM) test-retest): -35 to 62%
- VT (2TCM) (caudate, retest): 1.06 (0.24)
- VT (2TCM) (caudate, test): 0.88(0.13)
- BPND (k3/k4) Mean (cerebellum, 2TCM): 1.33
- BPND (k3/k4) Retest (cerebellum, 2TCM): 1.37(0.24)
- BPND (k3/k4) Test (cerebellum, 2TCM): 1.29(0.19)
- ICC (cerebellum): 0.07
- Error % mean(SD) [5]: -8% and -8(20) %
- Error range (%) [5]: -21 to 32%
- Error % mean(SD) [6]: -1(18) %
- Error range (%) [6]: -32 to 24%
- VT (2TCM) (cerebellum, retest): 0.72 (0.16)
- VT (2TCM) (cerebellum, test): 0.74(0.18)
- BPND (k3/k4) Mean (grey matter, cortex, 2TCM): 1.55
- BPND (k3/k4) Retest (grey matter, cortex, 2TCM): 1.59(0.29)
- BPND (k3/k4) Test (grey matter, cortex, 2TCM): 1.50(0.27)
- ICC (grey matter, cortex): 0.47
- Error % mean(SD) [7]: 5% and 5(18) %
- Error range (%) [7]: -24 to 25%
- K1 [8]: 0.094 mL/cc/min and 0.035 mL/cc/min and 0.044 mL/cc/min and 0.045 mL/cc/min and 0.056 mL/cc/min and 0.057 mL/cc/min
- k2 [8]: 0.111 min⁻¹ and 0.086 min⁻¹ and 0.108 min⁻¹ and 0.091 min⁻¹ and 0.099 min⁻¹ and 0.118 min⁻¹
- k2 (grey matter, 1TCM, retest (2), mean(SD/CV) of 6 subjects): 0.102(0.012/12) min^-1
- K1 [9]: 0.062 mL/cc/min and 0.037 mL/cc/min and 0.042 mL/cc/min and 0.074 mL/cc/min and 0.054 mL/cc/min
- k2 [9]: 0.086 min⁻¹ and 0.087 min⁻¹ and 0.111 min⁻¹ and 0.106 min⁻¹ and 0.116 min⁻¹ and 0.096 min⁻¹
- K1 [10]: 0.055(0.014/25) mL/cc/min
- k2 [10]: 0.100(0.012/12) min^-1
- K1 [11]: 0.077 mL/cc/min and 0.129 mL/cc/min and 0.049 mL/cc/min and 0.067 mL/cc/min and 0.060 mL/cc/min and 0.073 mL/cc/min
- k2 [11]: 0.287 min⁻¹ and 0.318 min⁻¹ and 0.246 min⁻¹ and 0.340 min⁻¹ and 0.239 min⁻¹ and 0.234 min⁻¹
- k3 [11]: 0.059 min⁻¹ and 0.111 min⁻¹ and 0.062 min⁻¹ and 0.068 min⁻¹ and 0.065 min⁻¹
- k4 [11]: 0.041 min⁻¹ and 0.076 min⁻¹ and 0.035 min⁻¹ and 0.032 min⁻¹ and 0.045 min⁻¹ and 0.044 min⁻¹
- K1 [12]: 0.076 (0.028/37) mL/cc/min
- k2 [12]: 0.277(0.045/16) min^-1
- k3 [12]: 0.071(0.02/28) min^-1
- k4 [12]: 0.046(0.016/34) min^-1
- K1 [13]: 0.082 mL/cc/min and 0.048 mL/cc/min and 0.054 mL/cc/min and 0.094 mL/cc/min and 0.072 mL/cc/min
- k2 [13]: 0.220 min⁻¹ and 0.245 min⁻¹ and 0.221 min⁻¹ and 0.264 min⁻¹ and 0.252 min⁻¹
- k3 [13]: 0.061 min⁻¹ and 0.055 min⁻¹ and 0.040 min⁻¹ and 0.038 min⁻¹ and 0.076 min⁻¹ and 0.058 min⁻¹
- k4 [13]: 0.033 min⁻¹ and 0.038 min⁻¹ and 0.023 min⁻¹ and 0.029 min⁻¹ and 0.067 min⁻¹ and 0.026 min⁻¹
- K1 [14]: 0.072(0.018/25) mL/cc/min
- k2 [14]: 0.237(0.019/8) min^-1
- k3 [14]: 0.055(0.014/25) min^-1
- Error % mean(SD) [15]: -6(17) %
- Error range (%) [15]: -36 to 15%
- VT (2TCM) (grey matter, retest): 0.70 (0.17)
- VT (2TCM) (grey matter, test): 0.76(0.18)
- BPND (k3/k4) Mean (putamen (L), 2TCM): 1.44
- BPND (k3/k4) Retest (putamen (L), 2TCM): 1.60(0.67)
- BPND (k3/k4) Test (putamen (L), 2TCM): 1.28(0.31)
- ICC (putamen (L)): 0.02
- Error % mean(SD) [16]: -30(59) %
- Error range (%) [16]: -145 to 23%
